Assay results as given in ChEMBL document CHEMBL4340578, “11-Aminostrychnine and N-(Strychnine-11-yl)propionamide: Synthesis, Configuration, and Pharmacological Evaluation at Glycine Receptors” (J Nat Prod, 2019).

Tests used:
[1] = target: T1, Glycine receptor subunit alpha-1 (Homo sapiens, UniProt P23415); test: Antagonist activity at human glycine receptor subunit alpha-1 expressed in HEK293 cells assessed as reduction in glycine-induced whole cell currents by patch-clamp technique; type: cell-based
T1 sequence (P23415 whole entry): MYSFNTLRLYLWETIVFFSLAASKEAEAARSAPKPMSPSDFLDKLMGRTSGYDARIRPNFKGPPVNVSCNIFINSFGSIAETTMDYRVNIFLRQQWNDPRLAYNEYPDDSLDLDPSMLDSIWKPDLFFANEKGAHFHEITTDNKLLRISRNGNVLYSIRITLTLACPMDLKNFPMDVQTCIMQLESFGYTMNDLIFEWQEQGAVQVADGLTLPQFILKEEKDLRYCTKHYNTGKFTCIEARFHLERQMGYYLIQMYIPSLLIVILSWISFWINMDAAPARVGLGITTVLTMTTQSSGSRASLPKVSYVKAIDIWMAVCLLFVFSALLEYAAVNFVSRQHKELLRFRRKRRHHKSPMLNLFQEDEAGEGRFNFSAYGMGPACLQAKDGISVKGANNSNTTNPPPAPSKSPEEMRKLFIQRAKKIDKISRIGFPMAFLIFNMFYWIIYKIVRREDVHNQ

[2] = target: T1, Glycine receptor subunit alpha-1; test: Displacement of [3H]strychnine from human glycine receptor subunit alpha-1 expressed in HEK293 cell membranes
[3] = target: T1, Glycine receptor subunit alpha-1; test: Antagonist activity at human glycine receptor subunit alpha-1 expressed in human tsA201 cells assessed as reduction in glycine-induced response by fluorescence-based FLIPR membrane potential blue assay; type: cell-based
[4] = target: T2, Glycine receptor (alpha-1/beta) (Homo sapiens, UniProt P23415+P48167); test: Antagonist activity at human glycine receptor subunit alpha-1beta expressed in human tsA201 cells assessed as reduction in glycine-induced response by fluorescence-based FLIPR membrane potential blue assay; type: cell-based
[5] = target: T2, Glycine receptor (alpha-1/beta); test: Antagonist activity at human glycine receptor subunit alpha-1beta expressed in HEK293 cells assessed as reduction in glycine-induced whole cell currents by patch-clamp technique; type: cell-based

T2 sequence (P48167 whole entry, one chain of several): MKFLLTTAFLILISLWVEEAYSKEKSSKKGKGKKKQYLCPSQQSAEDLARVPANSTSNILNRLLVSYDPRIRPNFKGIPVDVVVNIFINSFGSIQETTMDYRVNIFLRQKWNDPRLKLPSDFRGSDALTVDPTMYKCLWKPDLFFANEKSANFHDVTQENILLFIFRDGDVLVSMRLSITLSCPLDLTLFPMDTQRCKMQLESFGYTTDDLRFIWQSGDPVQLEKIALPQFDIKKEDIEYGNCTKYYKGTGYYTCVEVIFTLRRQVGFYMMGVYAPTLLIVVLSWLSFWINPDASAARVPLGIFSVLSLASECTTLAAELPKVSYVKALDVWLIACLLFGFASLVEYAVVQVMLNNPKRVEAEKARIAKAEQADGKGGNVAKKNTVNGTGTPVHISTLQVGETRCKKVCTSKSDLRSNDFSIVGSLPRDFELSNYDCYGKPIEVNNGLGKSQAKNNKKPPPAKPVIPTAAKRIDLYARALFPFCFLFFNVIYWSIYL

Row | SMILES | IC50 [1] [nM] | Ki [2] [nM] | IC50 [3] [nM] | IC50 [4] [nM] | IC50 [5] [nM]
1 | N[C@@H]1C(=O)N2c3ccccc3[C@@]34CCN5CC6=CCO[C@@H]1[C@@H]([C@H]23)[C@H]6C[C@H]54 | 194 | 741 | 1000 | 7700 | –
2 | CCC(=O)N[C@@H]1C(=O)N2c3ccccc3[C@@]34CCN5CC6=CCO[C@@H]1[C@@H]([C@H]23)[C@H]6C[C@H]54 | 173 | 91 | 710 | 2200 | 147
3 | O=C1C[C@@H]2OCC=C3CN4CC[C@]56c7ccccc7N1[C@H]5[C@H]2[C@H]3C[C@H]46 [STRYCHNINE] | – | 123 | 150 | 510 | –
